Here are results for two compounds from patent US6894068B2, “Substituted benzimidazoles as non-nucleoside inhibitors of reverse transcriptase” (The United States of America as represented by the …, priority 1997, dated 2005).

The subject of data set [1] is HIV-1 NL4-3 (WT). Kind of data set: Cytopathic cell killing assay, MT-4 cells, isolate NL4-3 (WT). Format: cell-based. The note with it: for EC50: values in μM, read-out: EC50, isolate NL4-3 (WT). In a few lines: (§1)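 XTT formazan absorbance at 450 nm after 6 days at 37° C gives cell viability, protecting infected cells from HIV-induced killing. Infection used an MOI (e.g., 0.01-0.05) titered for full cytopathicity by day 6. Test compounds were run in triplicate half-log dilution series.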
(Protection from cytopathic effect is a common read-out in antiviral testing.)

In data set [2] the test system is HIV-1 isolate L74V. Kind of data set: Cytopathic cell killing assay, MT-4 cells, isolate L74V. It is filed as cell-based. The text has this:
(§2) The various HIV isolates tested in the Figures are those corresponding to wild-type virus (NL4-3) and the other strains listed by their RT mutations. The three 4×AZT isolates included in the Figures represent AZT drug-resistant variants. For example, the 4×AZT/L100I isolate has five mutations: four mutations confer increased resistance to AZT, and the other mutation is located within the NNRTI binding pocket. TZB and nevir. (nevirapine) are two well-known NNRTIs, included in this experiment for comparison purposes.
(§3) In this Example, the antiviral and cellular toxicity of NNRTIs was investigated, using the cytopathic cell killing assay described by Yang (Yang et al., “Characteristics of a Group of Non-nucleoside Reverse Transcriptase Inhibitors with Structural Diversity and Potent Anti-Human Immunodeficiency Virus Activity,” Leukemia 9:S75-S85 [1995]). Briefly, in this method cells (e.g., the CEM-SS cell line, available from the NIAID AIDS Research and Reference Program [ARRRP]) were seeded at a density of 5×10^3 cells/well, into the wells of a 96-well microtiter plate. The cells were then infected with HIV virus (either mutant or WT), at a multiplicity of infection (MOI) previously determined to provide complete cell killing by 6 days of culture post-infection (e.g., MOI of 0.01-0.05). Each of the HIV isolates was pre-titered to induce equivalent levels of infection based on cell killing or virus production, prior to their use in these assays. A range of test compound concentrations was added to the wells in triplicate (e.g., serial half-log dilutions) to evaluate inhibition of HIV infection. Controls for each assay included drug controls (drug colorimetric control wells), drug cytotoxicity control wells (cells with drug), virus control wells (cells with virus), and cell viability controls (cells only). Positive control drugs (e.g. AZT and ddC) were also run in parallel.
(§4) After six days of incubation at 37° C., cell viability was determined spectrophotometrically at 450 nm for each well, using the metabolic reduction of XTT to a soluble colored formazan. (See, Gartner and Popovic, “Virus Isolation and Production, in Aldovini and Walker (eds.), Techniques in HIV Research, Stockton Press, NY, pp. […] [1991]; and Nara and Fischinger, “Quantitative Infectivity Assay for HIV-1 and HIV-2, ” Nature 332:469-470 [1988]).
(§5) The in vitro therapeutic index (TI50) was defined as the fold-difference between the EC50 and IC50. The results for the various compounds are included in FIGS. 8 and 19.

In data set [3] the test system is HIV-1 isolate A98G. Kind of data set: Cytopathic cell killing assay, MT-4 cells, isolate A98G. It is filed as cell-based.
From the text: as §2, §3, §4, §5

The subject of data set [4] is HIV-1 isolate L100I. Kind of data set: Cytopathic cell killing assay, MT-4 cells, isolate L100I. It is filed as cell-based. The method in brief:
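Infect seeded cells with HIV-1 at a pre-determined MOI, add compound over a half-log concentration range, incubate six days at 37° C, then measure XTT formazan at 450 nm. Parallel wells of cells with drug alone assessed cytotoxicity.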

The subject of data set [5] is HIV-1 isolate K103N. In words: Cytopathic cell killing assay, MT-4 cells, isolate K103N. The note with it: for pEC50: Human immunodeficiency virus 1, MT4, read-out: EC50, isolate K103N, Table 8, MT-4 cells. It is filed as cell-based. The method in brief:
as §1

Data set [6] deals with HIV-1 isolate V106A. In words: Cytopathic cell killing assay, MT-4 cells, isolate V106A. It is filed as cell-based.
From the text: as §2
(§6) In this Example, the antiviral and cellular toxicity of NNRTIs was investigated, using the cytopathic cell killing assay described by Yang (Yang et al., “Characteristics of a Group of Non-nucleoside Reverse Transcriptase Inhibitors with Structural Diversity and Potent Anti-Human Immunodeficiency Virus Activity,” Leukemia 9:S75-S85 [1995]). Briefly, in this method cells (e.g., the CEM-SS cell line, available from the NIAID AIDS Research and Reference Program [ARRRP]) were seeded at a density of 5×10^3 cells/well, into the wells of a 96-well microtiter plate. The cells were then infected with HIV virus (either mutant or WT), at a multiplicity of infection (MOI) previously determined to provide complete cell killing by 6 days of culture post-infection (e.g., MOI of 0.01-0.05). Each of the HIV isolates was pre-titered to induce equivalent levels of infection based on cell killing or virus production, prior to their use in these assays. A range of test compound concentrations was added to the wells in triplicate (e.g., serial half-log dilutions) to evaluate inhibition of HIV infection. […]
(§7) After six days of incubation at 37° C., cell viability was determined spectrophotometrically at 450 nm for each well, using the metabolic reduction of XTT to a soluble colored formazan. (See, Gartner and Popovic, “Virus Isolation and Production, in Aldovini and Walker (eds.), Techniques in HIV Research, Stockton Press, NY, pp. […] [1991]; and Nara and Fischinger, “Quantitative Infectivity Assay for HIV-1 and HIV-2, ” Nature 332:469-470 [1988]). […]

The subject of data set [7] is HIV-1 isolate Y188C. In words: Cytopathic cell killing assay, MT-4 cells, isolate Y188C. Format: cell-based. In a few lines: as §1
For data set [8], the system named is HIV-1 isolate 4xAZT/L100I. In words: Cytopathic cell killing assay, MT-4 cells, isolate 4xAZT/L100I. The note with it: Human immunodeficiency virus 1, MT4, read-out: EC50, isolate 4XAZT/L1001. Format: cell-based. Here is the method: The various HIV isolates tested in the Figures are those corresponding to wild-type virus (NL4-3) and the other strains listed by their RT mutations. The three 4×AZT isolates included in the Figures represent AZT drug-resistant variants.
Briefly, in this method cells (e.g., the CEM-SS cell line, available from the NIAID AIDS Research and Reference Program [ARRRP]) were seeded at a density of 5×10^3 cells/well, into the wells of a 96-well microtiter plate. The cells were then infected with HIV virus (either mutant or WT), at a multiplicity of infection (MOI) previously determined to provide complete cell killing by 6 days of culture post-infection (e.g., MOI of 0.01-0.05). Each of the HIV isolates was pre-titered to induce equivalent levels of infection based on cell killing or virus production, prior to their use in these assays. A range of test compound concentrations was added to the wells in triplicate (e.g., serial half-log dilutions) to evaluate inhibition of HIV infection. Controls for each assay included drug controls (drug colorimetric control wells), drug cytotoxicity control wells (cells with drug), virus control wells (cells with virus), and cell viability controls (cells only). Positive control drugs (e.g. AZT and ddC) were also run in parallel.
as §4
The in vitro therapeutic index (TI50) was defined as the fold-difference between the EC50 and IC50.

Data set [9] concerns HIV-1 isolate 4xAZT/Y181C. Kind of data set: Cytopathic cell killing assay, MT-4 cells, isolate 4xAZT/Y181C. It is filed as cell-based. Particulars: Human immunodeficiency virus 1, MT4, read-out: EC50, isolate 4XAZT/Y181C.
From the text: as §2, §3, §4, §5

Data set [10] has as its system HIV-1 isolate M184I. Kind of data set: Cytopathic cell killing assay, isolate M184I. Format: cell-based. Particulars: Human immunodeficiency virus 1, read-out: EC50, isolate M184I.
From the text: as §2, §6, §7

Data set [11] concerns HIV-1 isolate Y188H. In words: Cytopathic cell killing assay, isolate Y188H. Format: cell-based. The note with it: Human immunodeficiency virus 1, read-out: EC50, isolate Y188H.
From the text: as §2, §3, §4, §5

The subject of data set [12] is WT and HIV-1 variants containing amino acid substitutions in RT. Format: cell-based. The note with it: cytopathic cell killing assay, NNRTI-resistant HIV isolates.

pEC50: −log10 of the molar value. Read-outs that look alike come from different tables or passages of the source.

The term EC50 denotes the midpoint of the concentration-response curve. The term melting point denotes the temperature of the solid-liquid transition.

`Nc1cccc2c1nc(-c1c(F)cccc1F)n2Cc1c(F)cccc1F` [Compound 3300, 4-amino-1-(2,6-difluorobenzyl)-2-(2,6-difluorophenyl)benzimidazole] displayed a melting point of 168 to 170 °C. The pEC50 in data set [1] (Human immunodeficiency virus 1, NL43, MT4, Table 8, MT-4 cells, read-out: EC50, isolate NL4-3) was 6.30. The EC50 in data set [1] (Human immunodeficiency virus 1, NL43, MT4, Table 10) was 0.68 µM. Moreover, the EC50 in data set [1] (Table 10, listed as NH2) is 0.4 µM. The pEC50 in [2] (Human immunodeficiency virus 1, MT4, read-out: EC50, isolate L74V, Table 8, MT-4 cells) was 6.52. Also, the pEC50 in data set [3] (Human immunodeficiency virus 1, MT4, read-out: EC50, isolate A98G, Table 8, MT-4 cells) was 5.82. Moreover, the pEC50 in data set [4] (Human immunodeficiency virus 1, MT4, read-out: EC50, isolate L1001, Table 8, MT-4 cells) was 5.89. In addition, the pEC50 in data set [5] is < 4.70. Moreover, in [6] (Human immunodeficiency virus 1, MT4, read-out: EC50, isolate V106A, Table 8, MT-4 cells), the pEC50 is < 4.70. Further, in data set [7] (Human immunodeficiency virus 1, MT4, read-out: EC50, isolate Y188C, Table 8, MT-4 cells), the pEC50 is 5.57. For the same compound, in [7] (Human immunodeficiency virus 1, MT4, read-out: EC50, isolate Y188C, Table 10, values in μM), the EC50 stood at 2 µM. The pEC50 in data set [8] was 6.52. Moreover, the pEC50 in data set [9] was < 5.00. The pEC50 in [10] is 6.19. Besides, the pEC50 in data set [11] was < 4.30. Besides, in data set [12], the “cross-resistance profile, result in words” value was “inhibit HIV-1 better than TZB”.

`CCc1cccc2c1nc(-c1c(F)cccc1F)n2Cc1c(F)cccc1F` [Compound 4011, 1-(2,6-difluorobenzyl)-2-(2,6-difluorophenyl)-4-ethylbenzimidazole] yielded a melting point of 165 to 166 °C. Also, in data set [1] (Human immunodeficiency virus 1, NL43, MT4, read-out: EC50, isolate NL4-3), the pEC50 was 5.96. In data set [1] (Human immunodeficiency virus 1, NL43, MT4, read-out: EC50, isolate NL4-3 (WT)), the pEC50 is 6.05. Moreover, the pEC50 in [2] (Human immunodeficiency virus 1, MT4, read-out: EC50, isolate L74V) was 5.82. Further, the pEC50 in data set [3] (Human immunodeficiency virus 1, MT4, read-out: EC50, isolate A98G) is 5.10. The pEC50 in [4] (Human immunodeficiency virus 1, MT4, read-out: EC50, isolate L100I) is 5.61. Moreover, the pEC50 in data set [4] (Human immunodeficiency virus 1, MT4, read-out: EC50, isolate L1001) was 6.22. The pEC50 in [5] is < 4.70. Moreover, the EC50 in [5] (Human immunodeficiency virus 1, MT4, read-out: EC50, isolate K103N, Table 10, values in μM) was > 50 µM. The pEC50 in data set [6] (Human immunodeficiency virus 1, MT4, read-out: EC50, isolate V106A) is < 4.70. In addition, the pEC50 in data set [7] (Human immunodeficiency virus 1, MT4, read-out: EC50, isolate Y188C) is 5.26. For the same compound, the pEC50 in data set [8] was 6.22. The pEC50 in [9] was < 4.70. In addition, the pEC50 in data set [10] is 6.02. Further, the pEC50 in data set [11] was 4.88. The “cross-resistance profile, result in words” value in [12] is listed as “inhibit HIV-1 better than TZB”.
